Experimental data: patent US8772300B2, “Phenyl or pyridinyl-ethynyl derivatives” (Hoffmann-La Roche Inc., priority 2011, dated 2014)

Target: T1, human mGlu5a receptor (Homo sapiens, UniProt P41594)
T1 construct: expressed in transfected cells
Experiment: Intracellular Ca2+ mobilization assay (mGlu5 PAM)
Type: cell-based
Details: for Emax: HEK293, maximal response in % of the maximal stimulatory effect obtained with saturating concentrations of L-glutamate, HEK-293 human mGlu5a cells, read-out: Eff. (%); for EC50: HEK-293 cells stably transfected with human mGlu5a receptor, L-glutamate added at EC20 (typically around 80 μM) after 10-30 min pre-incubation with test compound, read-out: EC50 (nM) mGlu5PAM
Description: A monoclonal HEK-293 cell line stably transfected with a cDNA encoding for the human mGlu5a receptor was generated; for the work with mGlu5 Positive Allosteric Modulators (PAMs), a cell line with low receptor expression levels and low constitutive receptor activity was selected to allow the differentiation of agonistic versus PAM activity. Cells were cultured according to standard protocols (Freshney, 2000) in Dulbecco's Modified Eagle Medium with high glucose supplemented with 1 mM glutamine, 10% (vol/vol) heat-inactivated bovine calf serum, Penicillin/Streptomycin, 50 μg/ml hygromycin and 15 μg/ml blasticidin (all cell culture reagents and antibiotics from Invitrogen, Basel, Switzerland).
About 24 hrs before an experiment, 5×10^4 cells/well were seeded in poly-D-lysine coated, black/clear-bottomed 96-well plates. The cells were loaded with 2.5 μM Fluo-4AM in loading buffer (1×HBSS, 20 mM HEPES) for 1 hr at 37° C. and washed five times with loading buffer. The cells were transferred into a Functional Drug Screening System 7000 (Hamamatsu, Paris, France), and 11 half logarithmic serial dilutions of test compound at 37° C. were added and the cells were incubated for 10-30 min with on-line recording of fluorescence. Following this pre-incubation step, the agonist L-glutamate was added to the cells at a concentration corresponding to EC20 (typically around 80 μM) with on-line recording of fluorescence; in order to account for day-to-day variations in the responsiveness of cells, the EC20 of glutamate was determined immediately ahead of each experiment by recording of a full dose-response curve of glutamate.
Responses were measured as peak increase in fluorescence minus basal (i.e. fluorescence without addition of L-glutamate), normalized to the maximal stimulatory effect obtained with saturating concentrations of L-glutamate. Graphs were plotted with the % maximal stimulatory using XLfit, a curve fitting program that iteratively plots the data using Levenburg Marquardt algorithm. The single site competition analysis equation used was y=A+((B−A)/(1+((x/C)D))), where y is the % maximal stimulatory effect, A is the minimum y, B is the maximum y, C is the EC50, x is the log 10 of the concentration of the competing compound and D is the slope of the curve (the Hill Coefficient). From these curves the EC50 (concentration at which half maximal stimulation was achieved), the Hill coefficient as well as the maximal response in % of the maximal stimulatory effect obtained with saturating concentrations of L-glutamate were calculated.
A depression of the signal observed after addition of the EC20 concentration of L-glutamate was indicative of an inhibitory activity of the test compound.

T1 sequence (P41594 21-1180 isoform P41594-2 limits assumed): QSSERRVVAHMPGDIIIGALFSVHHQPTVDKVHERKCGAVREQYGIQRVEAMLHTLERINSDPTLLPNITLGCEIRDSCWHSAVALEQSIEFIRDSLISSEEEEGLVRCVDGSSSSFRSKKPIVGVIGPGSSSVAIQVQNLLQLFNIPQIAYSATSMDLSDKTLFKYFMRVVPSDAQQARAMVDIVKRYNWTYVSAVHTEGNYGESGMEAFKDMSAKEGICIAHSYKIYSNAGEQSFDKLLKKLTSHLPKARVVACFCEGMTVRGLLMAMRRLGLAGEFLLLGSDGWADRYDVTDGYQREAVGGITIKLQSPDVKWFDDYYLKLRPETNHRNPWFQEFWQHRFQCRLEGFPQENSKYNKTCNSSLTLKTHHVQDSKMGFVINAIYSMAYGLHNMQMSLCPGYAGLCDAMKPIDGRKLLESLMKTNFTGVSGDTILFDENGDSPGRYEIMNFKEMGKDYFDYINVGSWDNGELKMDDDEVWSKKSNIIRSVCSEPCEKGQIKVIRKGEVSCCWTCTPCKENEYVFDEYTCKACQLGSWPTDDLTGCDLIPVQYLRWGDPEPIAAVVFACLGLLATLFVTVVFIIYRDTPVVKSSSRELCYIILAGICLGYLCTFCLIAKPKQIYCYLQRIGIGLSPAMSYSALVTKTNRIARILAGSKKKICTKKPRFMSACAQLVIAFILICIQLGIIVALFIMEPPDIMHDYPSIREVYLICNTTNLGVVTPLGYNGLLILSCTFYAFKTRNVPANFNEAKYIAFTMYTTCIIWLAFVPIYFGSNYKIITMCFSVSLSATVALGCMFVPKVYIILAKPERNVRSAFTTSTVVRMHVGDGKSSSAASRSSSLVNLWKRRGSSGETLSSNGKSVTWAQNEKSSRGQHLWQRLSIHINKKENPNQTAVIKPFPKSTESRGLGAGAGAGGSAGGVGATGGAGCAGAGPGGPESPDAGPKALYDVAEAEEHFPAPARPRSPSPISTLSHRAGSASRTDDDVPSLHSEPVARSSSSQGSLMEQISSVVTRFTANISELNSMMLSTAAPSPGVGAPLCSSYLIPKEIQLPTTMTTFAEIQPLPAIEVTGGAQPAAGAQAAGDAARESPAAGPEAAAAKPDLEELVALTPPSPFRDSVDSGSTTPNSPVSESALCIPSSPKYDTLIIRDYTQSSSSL

SMILES | Emax [%] | EC50 [nM]
CC1(C)CC(O)CCN1C(=O)c1ncc(C#Cc2cc(F)ccc2F)cc1F (racemic) [Example 68, (RS)-[5-(2,5-Difluoro-phenylethynyl)-3-fluoro-pyridin-2-yl]-(4-hydroxy-2,2-dimethyl-piperidin-1-yl)-methanone] | 54 | 46
CC1(C)CCCN(C(=O)c2ncc(C#Cc3ccccc3)cn2)C1 [Example 46, (3,3-Dimethyl-piperidin-1-yl)-(5-phenylethynyl-pyrimidin-2-yl)-methanone] | 59 | 50
CC(C)(NC(=O)c1ccc(C#Cc2ccnc(Cl)c2)cn1)C(F)(F)F [Example 54, 5-(2-Chloro-pyridin-4-ylethynyl)-pyridine-2-carboxylic Acid (2,2,2-trifluoro-1,1-dimethyl-ethyl)-amide] | 80 | 37
CC(N(C)C(=O)c1ncc(C#Cc2ccccc2)cc1F)C(F)(F)F (racemic) [Example 51, (RS)-3-Fluoro-5-phenylethynyl-pyridine-2-carboxylic Acid methyl-(2,2,2-trifluoro-1-methyl-ethyl)-amide] | 69 | 66
Cc1cccc(C#Cc2cnc(C(=O)NC(C)(C)C)nc2)c1 [Example 13, 5-m-Tolylethynyl-pyrimidine-2-carboxylic Acid tert-butylamide] | 83 | 71
CN(C(=O)c1ccc(C#Cc2cccc(Cl)c2)cn1)C(C)(C)C(F)(F)F [Example 56, 5-(3-Chloro-phenylethynyl)-pyridine-2-carboxylic Acid methyl-(2,2,2-trifluoro-1,1-dimethyl-ethyl)-amide] | 29 | 22
CC1(C)CC(O)CCN1C(=O)c1ncc(C#Cc2cccc(F)c2)cn1 (racemic) [Example 65, (RS)-[5-(3-Fluoro-phenylethynyl)-pyrimidin-2-yl]-(4-hydroxy-2,2-dimethyl-piperidin-1-yl)-methanone] | 55 | 149
CC(N(C)C(=O)c1ccc(C#Cc2cccc(Cl)c2)cn1)C(F)(F)F (racemic) [Example 62, (RS)-5-(3-Chloro-phenylethynyl)-pyridine-2-carboxylic acid methyl-(2,2,2-trifluoro-1-methyl-ethyl)-amide] | 35 | 25
CN(C(=O)c1ccc(C#Cc2cccc(F)c2)cn1)C(C)(C)C [Example 3, 5-(3-Fluoro-phenylethynyl)-pyridine-2-carboxylic Acid tert-butyl-methyl-amide] | 64 | 16
Cc1cc(C#Cc2cncc(Cl)c2)cnc1C(=O)N(C)C(C)(C)C [Example 20, 5-(5-Chloro-pyridin-3-ylethynyl)-3-methyl-pyridine-2-carboxylic Acid tert-butyl-methyl-amide] | 26 | 102
CC1(C)CC(O)CCN1C(=O)c1ncc(C#Cc2ccccc2)cn1 (racemic) [Example 47, (RS)-(4-Hydroxy-2,2-dimethyl-piperidin-1-yl)-(5-phenylethynyl-pyrimidin-2-yl)-methanone] | 57 | 66
CN(C(=O)c1ncc(C#Cc2cncc(Cl)c2)cn1)C(C)(C)C [Example 16, 5-(5-Chloro-pyridin-3-ylethynyl)-pyrimidine-2-carboxylic Acid tert-butyl-methyl-amide] | 27 | 58
CC1(C)CN(C(=O)c2ccc(C#Cc3cccc(F)c3)cn2)CCO1 [Example 35, (2,2-Dimethyl-morpholin-4-yl)-[5-(3-fluoro-phenylethynyl)-pyridin-2-yl]-methanone] | 57 | 46
CC1(C)CN(C(=O)c2ccc(C#Cc3cc(F)ccc3F)cn2)CCO1 [Example 36, [5-(2,5-Difluoro-phenylethynyl)-pyridin-2-yl]-(2,2-dimethyl-morpholin-4-yl)-methanone] | 44 | 56
CC(C)(C)NC(=O)c1ncc(C#Cc2cccc(F)c2)cn1 [Example 10, 5-(3-Fluoro-phenylethynyl)-pyrimidine-2-carboxylic Acid tert-butylamide] | 81 | 36
CC1(C)CC(O)CCN1C(=O)c1ccc(C#Cc2cc(F)ccc2F)cn1 (racemic) [Example 64, (RS)-[5-(2,5-Difluoro-phenylethynyl)-pyridin-2-yl]-(4-hydroxy-2,2-dimethyl-piperidin-1-yl)-methanone] | 42 | 34
CC1(O)CCN(C(=O)c2ccc(C#Cc3cccc(F)c3)cn2)CC1 [Example 37, [5-(3-Fluoro-phenylethynyl)-pyridin-2-yl]-(4-hydroxy-4-methyl-piperidin-1-yl)-methanone] | 38 | 79
CN(C(=O)c1ncc(C#Cc2ccccc2)cc1Cl)C(C)(C)C [Example 43, 3-Chloro-5-phenylethynyl-pyridine-2-carboxylic Acid tert-butyl-methyl-amide] | 69 | 36
CN(C(=O)c1ncc(C#Cc2cccc(F)c2)cn1)C1(C(F)(F)F)CC1 [Example 44, 5-(3-Fluoro-phenylethynyl)-pyrimidine-2-carboxylic Acid methyl-(1-trifluoromethyl-cyclopropyl)-amide] | 68 | 42

Further compounds by falling EC50, results first:

Emax [%] | EC50 [nM] | SMILES
90 | 127 | CC(C)(C)NC(=O)c1ncc(C#Cc2ccc(F)cc2)cn1 [Example 9, 5-(4-Fluoro-phenylethynyl)-pyrimidine-2-carboxylic Acid tert-butylamide]
48 | 98 | CC1(C)CN(C(=O)c2ncc(C#Cc3cccc(F)c3)cn2)CCC1O (racemic) [Example 49, (RS)-[5-(3-Fluoro-phenylethynyl)-pyrimidin-2-yl]-(4-hydroxy-3,3-dimethyl-piperidin-1-yl)-methanone]
71 | 76 | Cc1cc(C#Cc2ccc(F)cc2)cnc1C(=O)N(C)C(C)(C)C [Example 18, 5-(4-Fluoro-phenylethynyl)-3-methyl-pyridine-2-carboxylic Acid tert-butyl-methyl-amide]
63 | 37 | CN(C(=O)c1ccc(C#Cc2cncc(Cl)c2)cn1)C(C)(C)C(F)(F)F [Example 55, 5-(5-Chloro-pyridin-3-ylethynyl)-pyridine-2-carboxylic Acid methyl-(2,2,2-trifluoro-1,1-dimethyl-ethyl)-amide]
32 | 35 | CN(C(=O)c1ncc(C#Cc2cc(F)ccc2F)cn1)C(C)(C)C [Example 15, 5-(2,5-Difluoro-phenylethynyl)-pyrimidine-2-carboxylic Acid tert-butyl-methyl-amide]
56 | 32 | CN(C(=O)c1ccc(C#Cc2cccc(F)c2)cn1)C1CCC1 [Example 25, 5-(3-Fluoro-phenylethynyl)-pyridine-2-carboxylic Acid cyclobutyl-methyl-amide]
57 | 28 | CC1(C)CC(O)CCN1C(=O)c1ccc(C#Cc2ccccc2)cn1 (racemic) [Example 38, (RS)-(4-Hydroxy-2,2-dimethyl-piperidin-1-yl)-(5-phenylethynyl-pyridin-2-yl)-methanone]
47 | 27 | CC(NC(=O)c1ccc(C#Cc2ccnc(Cl)c2)cn1)C(F)(F)F (single isomer, unassigned) [Example 59, (R) or (S)-5-(2-Chloro-pyridin-4-ylethynyl)-pyridine-2-carboxylic Acid (2,2,2-trifluoro-1-methyl-ethyl)-amide]
53 | 24 | CN(C(=O)c1ccc(C#Cc2cccc(F)c2)cn1)C1(C)COC1 [Example 27, 5-(3-Fluoro-phenylethynyl)-pyridine-2-carboxylic Acid methyl-(3-methyl-oxetan-3-yl)-amide]
45 | 21 | CN(C(=O)c1ccc(C#Cc2cc(F)ccc2F)cn1)C1(C)COC1 [Example 29, 5-(2,5-Difluoro-phenylethynyl)-pyridine-2-carboxylic Acid methyl-(3-methyl-oxetan-3-yl)-amide]
38 | 10 | CN(C(=O)c1ncc(C#Cc2cc(F)ccc2F)cc1F)C(C)(C)C [Example 23, 5-(2,5-Difluoro-phenylethynyl)-3-fluoro-pyridine-2-carboxylic Acid tert-butyl-methyl-amide]
